Counter-ions that a name gives are not always drawn. Like-named read-outs stand apart in the source and are kept apart here.
Legend:
TARG1 = target: T1, TARG1 (Homo sapiens, UniProt Q9Y530); type: biochemical; settings: read-out: IC50 TARG1
T1 construct: "Uniprot: Q9Y530" res; His10 with TEV site (N, cleaved yes); made in house; host or cells: E. coli T7-express
T1 sequence (Q9Y530 3-152): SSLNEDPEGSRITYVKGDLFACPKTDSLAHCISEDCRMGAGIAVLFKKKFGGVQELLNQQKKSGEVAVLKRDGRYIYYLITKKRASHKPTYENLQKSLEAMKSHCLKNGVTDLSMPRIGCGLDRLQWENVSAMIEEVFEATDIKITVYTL

MacroD1 [1] = target: T2, MacroD1 (Homo sapiens, UniProt Q9BQ69); assay: biochemical
T2 sequence (Q9BQ69 90-325): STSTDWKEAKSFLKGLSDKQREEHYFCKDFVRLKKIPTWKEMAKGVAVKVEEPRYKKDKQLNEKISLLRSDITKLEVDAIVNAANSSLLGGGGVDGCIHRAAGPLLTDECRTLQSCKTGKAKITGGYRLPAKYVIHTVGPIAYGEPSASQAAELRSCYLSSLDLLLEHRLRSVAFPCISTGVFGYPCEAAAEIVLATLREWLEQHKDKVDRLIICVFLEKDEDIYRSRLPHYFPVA

MacroD2 = target: T3, MacroD2 (Homo sapiens, UniProt A1Z1Q3); type: biochemical; settings: read-out: IC50 MacroD2
T3 sequence (A1Z1Q3 4-243): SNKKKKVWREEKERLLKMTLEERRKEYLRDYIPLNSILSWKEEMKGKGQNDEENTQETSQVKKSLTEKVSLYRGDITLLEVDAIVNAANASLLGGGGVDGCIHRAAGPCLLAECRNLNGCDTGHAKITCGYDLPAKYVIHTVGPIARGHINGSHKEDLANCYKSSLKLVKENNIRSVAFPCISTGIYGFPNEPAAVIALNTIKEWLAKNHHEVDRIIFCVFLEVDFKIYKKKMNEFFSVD

PARP14 Mac2/3 = target: T4, PARP14 Mac2/3 (Homo sapiens, UniProt Q460N5); assay: biochemical; type: binding
T4 sequence (Q460N5 994-1393): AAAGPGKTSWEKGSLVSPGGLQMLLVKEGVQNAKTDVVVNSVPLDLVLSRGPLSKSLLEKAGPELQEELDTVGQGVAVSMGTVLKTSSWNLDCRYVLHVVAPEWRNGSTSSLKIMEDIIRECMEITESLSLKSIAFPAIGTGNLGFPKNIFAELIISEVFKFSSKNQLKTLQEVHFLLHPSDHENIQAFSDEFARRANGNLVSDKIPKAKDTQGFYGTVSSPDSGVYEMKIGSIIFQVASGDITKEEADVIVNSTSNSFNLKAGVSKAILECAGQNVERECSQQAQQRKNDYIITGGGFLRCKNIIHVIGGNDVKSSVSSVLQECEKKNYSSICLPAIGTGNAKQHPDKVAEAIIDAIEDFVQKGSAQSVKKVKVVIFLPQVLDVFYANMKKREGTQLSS

SARS-CoV-2 Mac1 [2] = target: T5, SARS-CoV-2 Mac1 (Severe acute respiratory syndrome coronavirus 2, UniProt P0DTD1); assay: biochemical
SARS-CoV-2 Mac1 [3] = target: T5, SARS-CoV-2 Mac1; type: biochemical
HCoV-229e macrodomain = HCoV-229e macrodomain (Human coronavirus 229E, UniProt P0C6X1); assay: DeMAR HTRF deMARylation assay, wash protocol; type: biochemical
MacroD1 [4] = target: T2, MacroD1; parameters: method as in PMID 18983849; settings: read-out: Kd for free ADPr, MacroD1; cited from earlier work
CHIKV macrodomain = CHIKV macrodomain (Chikungunya virus, UniProt Q8JUX6, C1333S); type: biochemical, Chikungunya (CHIKV) alphavirus
MARylated Tb-PARP10cat [5] = type: biochemical, human
MARylated Tb-PARP10cat [6] = type: biochemical, human; remark: listed apart in the source
[7] = read-out: IC50 HCoV-229e, wash setup, 2 h, 80 nM macrodomain, 6 nM immobilized Tb-PARP10cat

## O=C(Nc1ccccc1)Nc1ccc(C(=O)NC2c3cccc(O)c3CC2C(=O)O)cc1 (centres unmarked) [Z8539_0023]
TARG1
  IC50: > 667 µM
MacroD1 [1]; read-out: IC50 MacroD1
  IC50: > 667 µM
MacroD2
  IC50: > 667 µM
PARP14 Mac2/3
  readout quenching in one-pot setup (PARP14 Mac2/3 off-target), in words: pronounced readout quenching
SARS-CoV-2 Mac1 [2]
  IC50: 6 µM

## Oc1c(Cl)cc(Cl)c(Cl)c1Cc1c(O)c(Cl)cc(Cl)c1Cl [hexachlorophene]
SARS-CoV-2 Mac1 [3]
  inhibition of SARS-CoV-2 Mac1 in words: limited efficacy

## Nc1ncnc2c1ncn2C1OC(COP(=O)(O)OP(=O)(O)OCC2OC(O)C(O)C2O)C(O)C1O (centres unmarked) [ADPr, Adenosine 5′-diphosphoribose sodium salt]
HCoV-229e macrodomain
  IC50: ~460 µM
MacroD1 [1]
  IC50: 2 µM
PARP14 Mac2/3
  IC50: 67 µM
MacroD1 [4]
  Kd: 0.9 µM

## O=C(Nc1ccc(C(=O)NC2c3cccc(O)c3CC2C(=O)O)c(O)c1)NC1CC1 (centres unmarked) [Z8539_0072]
HCoV-229e macrodomain; [7]
  IC50: > 667 µM
SARS-CoV-2 Mac1 [2]
  IC50: 14 µM

## O=C(Nc1ccc(C(=O)NC2c3cccc(O)c3CC2C(=O)O)cc1)NC1CC1 (centres unmarked) [Z8539]
HCoV-229e macrodomain; [7]
  IC50: > 667 µM
PARP14 Mac2/3
  readout quenching in one-pot setup (PARP14 Mac2/3 off-target), in words: does not show a strong quenching effect

## N#C[C@@]1(c2ccc3c(N)ncnn23)O[C@H](CO)[C@@H](O)[C@H]1O [GS-441524]
HCoV-229e macrodomain; [7]
  IC50: > 667 µM
CHIKV macrodomain
  IC50 CHIKV: slight activity
PARP14 Mac2/3
  readout quenching in one-pot setup (PARP14 Mac2/3 off-target), in words: clear and concentration-dependent loss of signal
SARS-CoV-2 Mac1 [3]
  inhibition of SARS-CoV-2 Mac1 in words: slightly inhibits

B1: MacroD1: recombinant human MacroD1, Uniprot Q9BQ69 res. 90-325 (protein, UniProt Q9BQ69 90-325, looked up, fragment)
chain: T2 sequence (Q9BQ69 90-325)
MARylated Tb-PARP10cat [5]
  EC80 One-pot (1 h): 0.004 µM
MARylated Tb-PARP10cat [6]
  EC80 Wash (2 h): 0.003 µM

B2: TARG1: recombinant human TARG1, Uniprot Q9Y530 res. S3-152 (protein, UniProt Q9Y530 3-152, looked up, fragment)
chain: T1 sequence (Q9Y530 3-152)
MARylated Tb-PARP10cat [5]
  EC80 One-pot (1 h): ∼2256 nM
MARylated Tb-PARP10cat [6]
  EC80 Wash (2 h): ∼ 830 nM

B3: HCoV-229e: recombinant HCoV-229E macrodomain, Uniprot P0C6X1 res. E1270-1437 (protein, UniProt P0C6X1 1270-1437, looked up, fragment)
chain: EKLNAFLVHDNVAFYQGDVDTVVNGVDFDFIVNAANENLAHGGGLAKALDVYTKGKLQRLSKEHIGLAGKVKVGTGVMVECDSLRIFNVVGPRKGKHERDLLIKAYNTINNEQGTPLTPILSCGIFGIKLETSLEVLLDVCNTKEVKVFVYTDTEVCKVKDFVSGLVN
modifications: Non-structural protein 3 macrodomain
MARylated Tb-PARP10cat [5]
  EC80 One-pot (1 h): 0.036 µM
MARylated Tb-PARP10cat [6]
  EC80 Wash (2 h): 0.015 µM

B4: MacroD2: recombinant human MacroD2, Uniprot A1Z1Q3 res. 4-243 (protein, UniProt A1Z1Q3 4-243, looked up, fragment)
chain: T3 sequence (A1Z1Q3 4-243)
MARylated Tb-PARP10cat [5]
  EC80 One-pot (1 h): 0.003 µM
MARylated Tb-PARP10cat [6]
  EC80 Wash (2 h): 0.002 µM
